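Cells were grown in 96-well plates and exposed to each compound for 48 hours at five concentrations; endpoints were interpolated linearly between bracketing concentrations, or set to the highest concentration if not reached. The concentration for 50% growth inhibition is given as GI50.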 Active and inactive are the calls of the source. No stated cut-off is given here; in the data, active = GI50 up to about 1.1 µM and inactive = higher. Starred links: 1 amine or outer side, 2 acyl side, 3 side chain; linkers in the order of their positions; H or OH if unused. Non-standard residues stand in square brackets, D forms with d. Residues, ends and D or L forms follow the SMILES beside them. ξ: configuration not given here. X24 = O=C(C(CC(O)CO)O[*:1])[*:2]; Ile(3ξ) = CCC(C)[C@H](N)C(=O)O; NMeV = CN[C@H](C(=O)O)C(C)C; NMeA = CN[C@@H](C)C(=O)O; βAla = NCCC(=O)O
Key:
Assay in all cases: DTP human tumour cell line panel, 48 h
COLO 205 = system: COLO 205
NCI-H460 = system: NCI-H460
UACC-257 = system: UACC-257
CCRF-CEM = system: CCRF-CEM
SW-620 = system: SW-620
SF-295 = system: SF-295
HOP-92 = system: HOP-92
NCI-H522 = system: NCI-H522
NCI-H23 = system: NCI-H23
CAKI-1 = system: CAKI-1
LOX IMVI = system: LOX IMVI
SK-OV-3 = system: SK-OV-3
SNB-19 = system: SNB-19
HCT-116 = system: HCT-116
SNB-75 = system: SNB-75
M14 = system: M14
UO-31 = system: UO-31

Measured: GI50

CC(=O)O/N=C/c1cc2c(cc1Br)OCO2
inactive: COLO 205 > 349 µM | NCI-H460 > 349 µM | UACC-257 > 349 µM | CCRF-CEM > 349 µM | SW-620 > 349 µM | SF-295 291 µM | HOP-92 > 349 µM | NCI-H522 185 µM | NCI-H23 > 349 µM | CAKI-1 > 349 µM | LOX IMVI > 349 µM | SK-OV-3 > 349 µM

CCC(C)[C@@H]1NC(=O)[C@@H]2CCCN2C(=O)C(CC(O)CO)OC(=O)CCNC(=O)[C@H](C)N(C)C(=O)[C@H](C(C)C)N(C)C1=O (some centres not stated) (cyclo([Ile(3ξ)][NMeV][NMeA][βAla][X24]P))
inactive: COLO 205 > 100 µM | NCI-H460 > 100 µM | UACC-257 > 100 µM | SNB-19 > 100 µM | HCT-116 > 100 µM | SNB-75 > 100 µM | CCRF-CEM 35.8 µM | SW-620 > 100 µM | SF-295 91 µM | HOP-92 > 100 µM | NCI-H23 > 100 µM | M14 > 100 µM | CAKI-1 > 100 µM | LOX IMVI 84.5 µM | SK-OV-3 > 100 µM | UO-31 > 100 µM

CCCCCCCC(=O)OCC(COC(=O)C(C)(C)C)OC(=O)Cc1ccccc1 (configuration not stated)
inactive: COLO 205 > 100 µM | NCI-H460 > 100 µM | SNB-19 > 100 µM | HCT-116 > 100 µM | CCRF-CEM > 100 µM | SW-620 > 100 µM | SF-295 > 100 µM | HOP-92 > 100 µM | NCI-H23 > 100 µM | M14 > 100 µM | CAKI-1 > 100 µM | LOX IMVI > 100 µM | SK-OV-3 > 100 µM | UO-31 > 100 µM

CC(=O)O[C@H]1CC[C@@]2(C)C(=CC[C@@H]3C2CC[C@]2(C)Nc4c(cnn4-c4ccccc4)CC32)C1 (some centres not stated)
inactive: NCI-H460 4.97 µM | UACC-257 12.4 µM | HCT-116 24.4 µM | SNB-75 4.07 µM | CCRF-CEM 5.51 µM | SW-620 19.4 µM | SF-295 2.69 µM | NCI-H23 28.2 µM | M14 46.1 µM | CAKI-1 15.3 µM | SK-OV-3 27.8 µM | UO-31 27.1 µM

O=C(O)CCSCCCN1C(=O)c2ccccc2C1=O
inactive: COLO 205 > 100 µM | UACC-257 > 100 µM | SNB-19 > 100 µM | HCT-116 > 100 µM | SNB-75 > 100 µM | SW-620 > 100 µM | SF-295 > 100 µM | HOP-92 > 100 µM | NCI-H23 > 100 µM | SK-OV-3 > 100 µM | UO-31 > 100 µM

COc1cc(C2C(C(=O)O)=C(COC(C)=O)Oc3cc4c(cc32)OCO4)cc(OC)c1OC(C)=O (configuration not stated)
inactive: COLO 205 > 100 µM | NCI-H460 > 100 µM | UACC-257 > 100 µM | SNB-19 > 100 µM | HCT-116 > 100 µM | SNB-75 > 100 µM | CCRF-CEM > 100 µM | SW-620 > 100 µM | SF-295 > 100 µM | HOP-92 > 100 µM | NCI-H23 > 100 µM | M14 > 100 µM | CAKI-1 > 100 µM | LOX IMVI > 100 µM | SK-OV-3 > 100 µM | UO-31 > 100 µM

CCCCCCCC/C=C\CCCCCCCC(=O)NCCN(CCN)C(=O)CCCCCCC/C=C\CCCCCCCC
inactive: COLO 205 > 100 µM | NCI-H460 > 100 µM | UACC-257 > 100 µM | SNB-19 > 100 µM | HCT-116 > 100 µM | CCRF-CEM > 100 µM | SW-620 > 100 µM | SF-295 > 100 µM | HOP-92 > 100 µM | NCI-H23 > 100 µM | M14 > 100 µM | CAKI-1 51.5 µM | LOX IMVI > 100 µM | SK-OV-3 > 100 µM | UO-31 > 100 µM

COc1cc(C)c(C(=O)/C=C/c2cc(OC)c(O)c(OC)c2)cc1O
inactive: COLO 205 32.7 µM | NCI-H460 25.1 µM | UACC-257 31.1 µM | SNB-19 18 µM | HCT-116 14.1 µM | SNB-75 20.7 µM | CCRF-CEM 12.5 µM | SW-620 26.4 µM | SF-295 39 µM | NCI-H522 18.1 µM | NCI-H23 12.2 µM | M14 15.3 µM | CAKI-1 26.4 µM | LOX IMVI 19.5 µM | SK-OV-3 32.1 µM | UO-31 23 µM

C=CCOC1CC(n2cnc3c(N)ncnc32)OC1CO (configuration not stated)
inactive: COLO 205 > 100 µM | NCI-H460 > 100 µM | UACC-257 > 100 µM | SNB-19 > 100 µM | HCT-116 > 100 µM | SNB-75 51.1 µM | CCRF-CEM > 100 µM | SW-620 > 100 µM | SF-295 > 100 µM | HOP-92 > 100 µM | NCI-H522 > 100 µM | NCI-H23 > 100 µM | M14 > 100 µM | CAKI-1 > 100 µM | UO-31 > 100 µM

O=C(O)COc1ccc(O)c2c1C(=O)CCCC2=O
inactive: COLO 205 > 100 µM | NCI-H460 > 100 µM | UACC-257 > 100 µM | SNB-19 > 100 µM | HCT-116 > 100 µM | CCRF-CEM > 100 µM | SW-620 > 100 µM | SF-295 > 100 µM | NCI-H522 > 100 µM | NCI-H23 > 100 µM | M14 > 100 µM | CAKI-1 > 100 µM | LOX IMVI > 100 µM | SK-OV-3 > 100 µM | UO-31 > 100 µM
